Results taken from patent US11964014B2, “Vaccine adjuvants based on TLR receptor ligands” (priority 2019, dated 2024).

What was measured:
[1] = test system: CT26 cells (murine colon cancer cell line); assay: CT26 syngeneic tumor model, tumor growth; type: in vivo; conditions: CT26 s.c. in female Balb/c mice; 10 μg or 50 μg IV once a week for two weeks, 2% glycerol in sterile water (FIG. 6A, 6B)
Method: Young, female Balb/c mice (approximately 8 weeks old) were implanted with 1×10^6 CT26 cells (murine colon cancer cell line, syngeneic in Balb/c mice) subcutaneously in the right flank. When tumors reached an average size of 75 mm^3 (11 days after CT26 cells were implanted), mice were randomized into treatment groups. Beginning on day 12, 10 μg or 50 μg of UM-1007 in an aqueous formulation (2% glycerol in sterile water) was injected IV once a week for two weeks.

[2] = test system: primary human peripheral blood mononuclear cells (PBMCs); assay: Cytokine (IFNα, IL-12p70, TNFα) induction in human PBMCs stimulated with TLR agonists; type: cell-based; conditions: human PBMC
Method: IFNα and IL-12p70 responses were measured in primary human peripheral blood mononuclear cells (PBMCs) after exposure to various concentrations of oxoadenine compounds.
Liposomes were prepared using the thin film method: phospholipids (DOPC and cholesterol at 40 and 10 mg/mL respectively) and agonist(s) (TLR7/8 agonist fixed at 2 mg/mL) were dissolved in chloroform at the desired concentration in a round bottom flask. The solvent was removed under vacuum by rotary evaporation at 45° C., and the resulting dried film was placed in a vacuum chamber overnight to remove any residual solvent. Rehydration buffer was added to the dried film and the suspension was sonicated to resuspend the phospholipids and form the unilamellar vesicles. Sonication continued until the particle size was<200 nm, at which time the formulations were sterile filtered through a 0.22 μm PVDF filter. Concentrations of agonist(s) in the formulations was determined by RP-HPLC using a five-point standard curve. Human whole blood was collected from normal healthy donors at the University of Montana (Missoula, MT) using an Institutional Review Board approved protocol. […] Culture supernatants were analyzed for IL-12p70 and IFNα levels using human IL-12p70 DuoSet (R) ELISA kit (R&D Systems, Minneapolis, MN) and human IFNα VeriKine ELISA kit (Pestka Biomedical Laboratories, Inc., Piscataway, NJ).

[3] = test system: monovalent (A/Victoria, H3N2) split flu antigen; type: in vivo, Balb/c mice; conditions: i.m.

## CCCCCCCCCCCCCCCC(=O)OC[C@H](COCCOCCOCCOP(=O)(O)OCCN1CCC(Cn2c(O)nc3c(N)nc(O[C@@H](C)CCC)nc32)CC1)OC(=O)CCCCCCCCCCCCCCC [UM-1007]
[1]
  Tumor growth compared to treatment naive controls: slower tumor growth
[2]; 24 h, liposomes, alone or in combination with TLR4 agonist CRX-601 (FIG. 2A)
  IFNα induction potency compared with the non-PEGylated oxoadenine Compound B: more potent IFNα inducer
[2]; combined with TLR4 agonist CRX-601 (FIG. 2B)
  IL-12p70 induction potency relative to Compound B: 125 fold
[3]; Balb/c mice, liposomes, 10 μg UM-1007 alone
  Anti-influenza IgG titers over antigen-only vaccinated animals: 17 fold
[3]; Balb/c mice, liposomes, 14dp2 (FIG. 3B)
  Dose dependence of anti-influenza IgG titer enhancement: enhanced titers in a dose-dependent manner
[3]; Balb/c mice, liposomes, co-encapsulated with CRX-601 (TLR7/8:TLR4 ratio 10:1)
  Anti-influenza IgG titers over the antigen-alone group: > 25 fold
[3]; naïve Balb/c mice, liposomes alone or co-encapsulated with CRX-601, 14dp1 (FIG. 3A)
  Anti-influenza IgG titers after a single vaccination: Strong anti-influenza IgG titers
